Reference: PubChem BioAssay AID248 (DTP/NCI, 2004)
Toxic doses and inconclusive results are not listed.

Tested on: L1210 leukemia ip in BDF1 mice, survival T/C
Assay: NCI In Vivo Anticancer Drug Screen. Data for tumor model L1210 Leukemia (intraperitoneal) in B6D2F1 (BDF1) mice
Settings: endpoint: mean survival time, higher = longer survival
Summary of the method: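 Tumor was transplanted into mice, which were then dosed with test compound or vehicle alone. Survival was recorded for each group, and the treated figure was expressed relative to the control figure.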

[1] = dose: 100.0 mg/kg/injection, schedule: Q01DX001 (ip), vehicle: Klucel (hydroxypropylcellulose) (HPC)
[2] = dose: 200.0 mg/kg/injection, schedule: Q01DX001 (ip), vehicle: Klucel (hydroxypropylcellulose) (HPC)
[3] = dose: 400.0 mg/kg/injection, schedule: Q01DX001 (ip), vehicle: Klucel (hydroxypropylcellulose) (HPC)
[4] = dose: 100.0 mg/kg/injection, schedule: Q04DX003 (ip), vehicle: Klucel (hydroxypropylcellulose) (HPC)
[5] = dose: 200.0 mg/kg/injection, schedule: Q04DX003 (ip), vehicle: Klucel (hydroxypropylcellulose) (HPC)
[6] = dose: 400.0 mg/kg/injection, schedule: Q04DX003 (ip), vehicle: Klucel (hydroxypropylcellulose) (HPC)
[7] = dose: 100.0 mg/kg/injection, schedule: Q04DX003 (ip), vehicle: saline
[8] = dose: 200.0 mg/kg/injection, schedule: Q04DX003 (ip), vehicle: saline

CC12CC3(C)CC(C)(C1)CC(NC(=O)N(CCF)N=O)(C2)C3
T/C (dose: 30.0 mg/kg/injection, schedule: Q01DX001 (ip), vehicle: other): 113 % of control | T/C (dose: 40.0 mg/kg/injection, schedule: Q01DX001 (ip), vehicle: other): 117 % of control | T/C (dose: 187.0 mg/kg/injection, schedule: Q01DX001 (ip), vehicle: other): 151 % of control | T/C (dose: 375.0 mg/kg/injection, schedule: Q01DX001 (ip), vehicle: other): 87 % of control

CC(=O)OCC1OC(OC(C)=O)C(NC(=O)NCCCl)C(OC(C)=O)C1OC(C)=O (stereo not given)
T/C (dose: 100.0 mg/kg/injection, schedule: Q01DX001 (ip), vehicle: other): 97 % of control | T/C (dose: 200.0 mg/kg/injection, schedule: Q01DX001 (ip), vehicle: other): 101 % of control | T/C (dose: 400.0 mg/kg/injection, schedule: Q01DX001 (ip), vehicle: other): 97 % of control

Cc1ccc(S(=O)(=O)OCC2C3CCC4C3C(C)(C)CCCC24C)cc1 (stereo not given)
T/C [1]: 107 % of control | T/C [2]: 95 % of control | T/C [3]: 90 % of control

Nc1ccc(OCCCc2c(N)nc(N)nc2N)c(Cl)c1
T/C [4]: 96 % of control | T/C [5]: 94 % of control | T/C [6]: 97 % of control

N#Cc1ccc([N+](=O)[O-])cc1O
T/C (dose: 50.0 mg/kg/injection, schedule: Q04DX003 (ip), vehicle: saline): 96 % of control | T/C (dose: 100.0 mg/kg/injection, schedule: Q01DX001 (ip), vehicle: saline): 98 % of control | T/C [7]: 95 % of control | T/C (dose: 200.0 mg/kg/injection, schedule: Q01DX001 (ip), vehicle: saline): 104 % of control | T/C [8]: 96 % of control

CCCCCCCCCCC/C=N\[N+](C)(C)C
T/C (dose: 12.5 mg/kg/injection, schedule: Q01DX009 (ip), vehicle: Klucel (hydroxypropylcellulose) (HPC)): 108 % of control | T/C (dose: 25.0 mg/kg/injection, schedule: Q01DX009 (ip), vehicle: Klucel (hydroxypropylcellulose) (HPC)): 95 % of control

CN1CCC(O)(c2ccccc2)C(/C(=N/O)c2ccccc2)C1 (stereo not given)
T/C [7]: 97 % of control | T/C [8]: 90 % of control

CC(=O)N(C)c1ccc(N)cc1
T/C (dose: 100.0 mg/kg/injection, schedule: Q01DX009 (ip), vehicle: saline): 104 % of control | T/C [7]: 100 % of control | T/C (dose: 200.0 mg/kg/injection, schedule: Q01DX009 (ip), vehicle: saline): 98 % of control | T/C [8]: 105 % of control | T/C (dose: 400.0 mg/kg/injection, schedule: Q01DX009 (ip), vehicle: saline): 93 % of control | T/C (dose: 400.0 mg/kg/injection, schedule: Q04DX003 (ip), vehicle: saline): 102 % of control

N#Cc1cccnc1Cl
T/C [1]: 100 % of control | T/C [4]: 96 % of control | T/C [2]: 94 % of control | T/C [5]: 87 % of control | T/C [3]: 100 % of control | T/C [6]: 99 % of control

Nc1cc2ccc(O)cc2c2ccccc12
T/C (dose: 25.6 mg/kg/injection, schedule: Q04DX002 (ip), vehicle: saline with Tween-80): 109 % of control | T/C (dose: 64.0 mg/kg/injection, schedule: Q04DX002 (ip), vehicle: saline with Tween-80): 91 % of control | T/C (dose: 160.0 mg/kg/injection, schedule: Q04DX002 (ip), vehicle: saline with Tween-80): 94 % of control | T/C (dose: 400.0 mg/kg/injection, schedule: Q04DX002 (ip), vehicle: saline with Tween-80): 102 % of control

Cc1cc(OC(=O)Nc2ccccc2Cl)ccc1[N+](=O)[O-]
T/C (dose: 100.0 mg/kg/injection, schedule: Q01DX009 (ip), vehicle: Klucel (hydroxypropylcellulose) (HPC)): 107 % of control | T/C [4]: 100 % of control | T/C (dose: 200.0 mg/kg/injection, schedule: Q01DX009 (ip), vehicle: Klucel (hydroxypropylcellulose) (HPC)): 104 % of control | T/C [5]: 89 % of control | T/C (dose: 400.0 mg/kg/injection, schedule: Q01DX009 (ip), vehicle: Klucel (hydroxypropylcellulose) (HPC)): 98 % of control | T/C [6]: 102 % of control

CCCCC[N+](C)(C)CCOC(=O)C1C2CC3OC(=O)C1C3C2 (stereo not given)
T/C [7]: 95 % of control
